From patent EP3298025B1, “NEW AMINO ACID SEQUENCES WITH MI[…] DERIVED FROM NAJA ATRA CARDIOTOXIN 1 (CTX-1)” (Università degli Studi di Parma, priority 2015, dated 2016) come the findings set out here.

Residues, ends and D or L forms follow the SMILES beside them.

For the test, the system named is Pseudomonas aeruginosa ATCC 27853. In words: antimicrobial activity in presence of NaCl. It is filed as cell-based. As for the experimental part:
Peptides were tested in the ability to inhibit bacterial growth in liquid medium. 50 µl of peptides at a concentration […] E. coli ATCC 25922, Pseudomonas aeruginosa ATCC 27853 and Staphylococcus aureus methicillin resistant ATCC 43300. After 2 hours incubation at 37°C, bacteria were plated on solid culture medium. Bacterial cultures were cultivated without peptides as growth control.
The bacterial suspension and peptides at differing concentrations were put in contact for about 2 hours at 37°C. After this incubation, 20 µl from every well of the plate were transplanted on solid culture medium, McConkey agar for Gram-negative and Columbia agar with 5% of bovine erythrocytes for Gram-positive bacteria. The inoculum was evenly distributed on the agar medium using a single use sterile handle. After an incubation time of 24 hours at 37°C, the bacterial colonies (cfu) were counted.

For the compound `CC[C@H](C)[C@H](NC(=O)[C@H](CCCCN)NC(=O)[C@H](Cc1ccc(O)cc1)NC(=O)[C@H](CS)NC(=O)[C@H](CC(C)C)NC(=O)[C@H](CC(N)=O)NC(=O)[C@H](CCCCN)NC(=O)CNC(=O)[C@H](C)NC(=O)[C@@H]1CCCN1C(=O)[C@H](CS)NC(=O)[C@@H](NC(=O)[C@H](CCCCN)NC(=O)[C@H](CO)NC(=O)[C@H](C)NC(=O)[C@@H](NC(=O)[C@@H]1CCCN1C(=O)[C@@H](NC(=O)[C@H](CC(C)C)NC(=O)[C@@H](N)CCCCN)[C@@H](C)CC)[C@@H](C)CC)[C@@H](C)O)C(=O)O` [NCP-0, K LIPIA SKT CPA GKN LCY KI] (H-KLIPIASKTCPAGKNLCYKI-OH; N-terminus and C-terminus assumed), the “Antimicrobial activity (% to control)” value (10 mM NaCl, peptide 12.5 µg/ml) is recorded as 0%; the “Antimicrobial activity (% to control)” value (10 mM NaCl, peptide 100 µg/ml) was determined as 2%; the “Antimicrobial activity (% to control)” value (125 mM NaCl, peptide 12.5 µg/ml) came out at 0%; the “Antimicrobial activity (% to control)” value (125 mM NaCl, peptide 100 µg/ml) was found to be 0%; the “Antimicrobial activity (% to control)” value (250 mM NaCl, peptide 12.5 µg/ml) came out at 0%; the “Antimicrobial activity (% to control)” value (250 mM NaCl, peptide 100 µg/ml) is 0%.
